Where “and” joins values, the source holds several entries; their conditions need not be identical. Identical values can stand only once. Like-named read-outs stand apart in the source and are kept apart here.
Experiments:
μ opiate receptor = μ opiate receptor (Cavia porcellus, UniProt A0ACM8Q262); test: biochemical; format: binding, guinea pig
δ opiate receptor = δ opiate receptor (Cavia porcellus, UniProt A0A286XTF2); test: Opiate (δ) binding, [3H]DPDPE competitive radioligand binding; design: species or system guinea pig
male ICR mice = test: In vivo mouse tail flick assay (radiant heat); conditions: for % Prolong.: 1 minute post-treatment vs 0 time; for tail flick response time, 1 Min. (single animal) / tail flick response time, 1 Min. (Avg.): 1 minute post-treatment; for tail flick response time, 1 Min. (single animal): cut-off 15 seconds; for tail flick response time, 1 Min. (Avg.) / tail flick response time, 0 Time (Avg.): group mean; for tail flick response time, 0 Time (Avg.) / tail flick response time, 0 Time (single animal): pre-treatment
[1] = target: opioid receptor (non-selective); test: Opiate (non-selective) binding, [3H]naloxone; conditions: [3H]naloxone (1 nM), rat cerebral cortex membranes
[2] = read-out: inhibition of radioligand binding
[3] = 10 μg/5 μl ICV, listed as Test Compound
[4] = 30 μg/5 μl ICV, listed as Test Compound
[5] = reference compounds, [3H]DPDPE bound (2 nM)

μ opiate receptor, sequence (A0ACM8Q262 1-400): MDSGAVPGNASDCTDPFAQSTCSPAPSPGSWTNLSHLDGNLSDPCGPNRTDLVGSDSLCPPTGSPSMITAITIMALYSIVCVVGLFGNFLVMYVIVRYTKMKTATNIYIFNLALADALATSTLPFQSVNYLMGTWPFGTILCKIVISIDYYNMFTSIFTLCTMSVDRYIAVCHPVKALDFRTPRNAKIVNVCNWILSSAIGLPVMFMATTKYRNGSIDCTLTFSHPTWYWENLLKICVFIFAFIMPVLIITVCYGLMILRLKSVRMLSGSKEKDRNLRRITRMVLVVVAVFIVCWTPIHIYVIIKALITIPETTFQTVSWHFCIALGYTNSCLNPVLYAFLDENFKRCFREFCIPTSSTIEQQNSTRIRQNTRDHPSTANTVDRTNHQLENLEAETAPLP
δ opiate receptor, sequence (A0A286XTF2 1-366): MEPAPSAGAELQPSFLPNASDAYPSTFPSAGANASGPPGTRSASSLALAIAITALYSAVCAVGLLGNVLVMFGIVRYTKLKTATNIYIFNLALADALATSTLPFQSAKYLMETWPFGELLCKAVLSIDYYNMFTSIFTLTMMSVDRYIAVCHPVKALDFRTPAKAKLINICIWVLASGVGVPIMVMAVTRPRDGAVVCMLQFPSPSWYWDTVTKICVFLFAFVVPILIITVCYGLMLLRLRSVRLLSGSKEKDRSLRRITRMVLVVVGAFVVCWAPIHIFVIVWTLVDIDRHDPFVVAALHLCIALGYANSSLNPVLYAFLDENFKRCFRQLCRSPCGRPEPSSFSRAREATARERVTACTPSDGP

## O=C1CN2C(=O)CCN(CCc3ccc(O)cc3)C2CN1CCc1ccccc1 (centres unmarked) [Compound 5]
μ opiate receptor
  IC50: 5400 ± 700 nM
  Ki: 640 ± 80 nM
μ opiate receptor; [2]
  inhibition at 10 µM: 64%
δ opiate receptor; read-out: IC50
  IC50: 6900 ± 1200 nM
δ opiate receptor; read-out: Ki
  Ki: 1700 ± 300 nM
δ opiate receptor; [2]
  inhibition at 10 µM: 60%
Male ICR mice; 10 μg/5 μl ICV
  % Prolong.: 6%
  tail flick response time, 1 Min. (Avg.): Avg. 7.1 seconds
  tail flick response time, 0 Time (Avg.): Avg. = 6.7 seconds
Male ICR mice; [3]
  tail flick response time, 1 Min. (single animal): 7.5 seconds (2×) and 6.7 seconds and 6.8 seconds
  tail flick response time, 0 Time (single animal): 6.5 s and 7.2 s and 6.9 s and 6.2 s
Male ICR mice; 30 μg/5 μl ICV
  % Prolong.: 63%
  tail flick response time, 1 Min. (Avg.): Avg. > 15 seconds
  tail flick response time, 0 Time (Avg.): Avg. = 6.7 seconds
Male ICR mice; [4]
  tail flick response time, 1 Min. (single animal): >15 seconds (2×) and 7.2 seconds and 6.3 seconds
  tail flick response time, 0 Time (single animal): 6.5 s and 6.7 s and 7.2 s and 6.3 s
Male ICR mice; 100 μg/5 μl ICV
  % Prolong.: 100%
  tail flick response time, 1 Min. (single animal): >15 s
  tail flick response time, 1 Min. (Avg.): Avg. > 15 seconds
  tail flick response time, 0 Time (Avg.): Avg. = 6.5 seconds
Male ICR mice; 100 μg/5 μl ICV, listed as Test Compound
  tail flick response time, 0 Time (single animal): 6.5 seconds (2×) and 6.3 seconds and 6.8 seconds
Male ICR mice; ICV, tail flick
  analgesic potency relative to morphine: 10%-15%

## CCCCCN1C[C@@H]2N(C(=O)OCCc3ccc(O)cc3)CCC(=O)N2[C@@H](CCc2ccccc2)C1=O [Compound 30]
[1]
  IC50: 27 nM

## C[C@@H](NC(=O)[C@@H](N)Cc1ccc(O)cc1)C(=O)NCC(=O)N(C)[C@@H](Cc1ccccc1)C(=O)NCCO [DAMGO, (D-Ala^2, N-methyl-phe^4, gly-ol^5)-enkephalin]
μ opiate receptor
  Hill Coefficient: 0.92
  IC50: 6.5 nM
  Ki: 0.59 nM
δ opiate receptor
  IC50: 4800 nM
  Ki: 1200 nM
δ opiate receptor; [5]
  Hill Coefficient: 1.08

## CN1CC[C@]23c4c5ccc(O)c4O[C@H]2[C@@H](O)C=C[C@H]3[C@H]1C5 [Morphine, reference compound]
Male ICR mice; 10 μg/5 μl ICV
  % Prolong.: 100%
  tail flick response time, 1 Min. (single animal): >15 s
  tail flick response time, 1 Min. (Avg.): Avg. > 15 seconds
  tail flick response time, 0 Time (single animal): 7.5 s and 6.3 s and 7.2 s and 6.8 s
  tail flick response time, 0 Time (Avg.): Avg. = 7.0 seconds

## Oc1ccc2c3c1O[C@H]1c4[nH]c5ccccc5c4C[C@@]4(O)[C@@H](C2)N(CC2CC2)CC[C@]314 [Naltrindole]
μ opiate receptor
  Hill Coefficient: 0.98
  IC50: 27 nM
  Ki: 2.5 nM
δ opiate receptor; [5]
  Hill Coefficient: 0.53

## Oc1ccc2c3c1O[C@H]1c4[nH]c5c(c4C[C@@]4(O)[C@@H](C2)N(CC2CC2)CC[C@]314)C[C@@]1(O)[C@H]2Cc3ccc(O)c4c3[C@@]1(CCN2CC1CC1)[C@H]5O4 [Norbinaltorphimine]
μ opiate receptor
  Hill Coefficient: 1.13
  IC50: 280 nM
  Ki: 26 nM

## C[C@@H](NC(=O)[C@@H](N)Cc1ccc(O)cc1)C(=O)NCC(=O)N(C)[C@@H](Cc1ccccc1)C(=O)NCCO [[^3H]DAMGO]
μ opiate receptor; read-out: Kd of radioligand
  Kd: 0.27 nM

## (D-pen^3, D-pen^5) enkephalin [DPDPE]
μ opiate receptor
  Hill Coefficient: 1.32
δ opiate receptor
  Hill Coefficient: 0.86

Source: US7598253B2, “Reverse-turn mimetics and methods relating thereto” (Myriad Genetics, Inc., priority 1995, dated 2009)
